Experimental data reported in PubChem BioAssay AID330 (DTP/NCI, 2004).
“And” between values parts separate entries of the source, which are not always exact repeats. Identical values can stand only once. Toxic doses and inconclusive results are not listed.

System: P388 leukemia ip, CD2F1 mice, survival T/C
Assay: NCI In Vivo Anticancer Drug Screen. Data for tumor model P388 Leukemia (intraperitoneal) in CD2F1 (CDF1) mice
Details: endpoint: median survival time, higher = longer survival
Procedure, shortened: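 Mice carrying the transplanted tumor received test compound or vehicle. Survival was recorded in each group, and the value is the treated-group measurement divided by that of the vehicle-treated control group.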

[1] = dose: 50.0 mg/kg/injection, schedule: Q01DX009 (ip), vehicle: saline with Tween-80
[2] = dose: 100.0 mg/kg/injection, schedule: Q01DX009 (ip), vehicle: saline with Tween-80
[3] = dose: 50.0 mg/kg/injection, schedule: Q01DX005 (ip), vehicle: saline with Tween-80
[4] = dose: 100.0 mg/kg/injection, schedule: Q01DX005 (ip), vehicle: saline with Tween-80
[5] = dose: 200.0 mg/kg/injection, schedule: Q01DX005 (ip), vehicle: saline with Tween-80
[6] = dose: 60.0 mg/kg/injection, schedule: Q01DX005 (ip), vehicle: saline with Tween-80
[7] = dose: 120.0 mg/kg/injection, schedule: Q01DX005 (ip), vehicle: saline with Tween-80
[8] = dose: 240.0 mg/kg/injection, schedule: Q01DX005 (ip), vehicle: saline with Tween-80
[9] = dose: 50.0 mg/kg/injection, schedule: Q01DX009 (ip), vehicle: Klucel (hydroxypropylcellulose) (HPC)
[10] = dose: 100.0 mg/kg/injection, schedule: Q01DX009 (ip), vehicle: Klucel (hydroxypropylcellulose) (HPC)
[11] = dose: 200.0 mg/kg/injection, schedule: Q01DX009 (ip), vehicle: Klucel (hydroxypropylcellulose) (HPC)
[12] = dose: 50.0 mg/kg/injection, schedule: Q01DX005 (ip), vehicle: saline
[13] = dose: 50.0 mg/kg/injection, schedule: Q01DX009 (ip), vehicle: saline
[14] = dose: 100.0 mg/kg/injection, schedule: Q01DX005 (ip), vehicle: saline
[15] = dose: 100.0 mg/kg/injection, schedule: Q01DX009 (ip), vehicle: saline
[16] = dose: 200.0 mg/kg/injection, schedule: Q01DX005 (ip), vehicle: saline
[17] = dose: 200.0 mg/kg/injection, schedule: Q01DX009 (ip), vehicle: saline
[18] = dose: 50.0 mg/kg/injection, schedule: Q01DX005 (ip), vehicle: Klucel (hydroxypropylcellulose) (HPC)
[19] = dose: 100.0 mg/kg/injection, schedule: Q01DX005 (ip), vehicle: Klucel (hydroxypropylcellulose) (HPC)
[20] = dose: 200.0 mg/kg/injection, schedule: Q01DX005 (ip), vehicle: Klucel (hydroxypropylcellulose) (HPC)
[21] = dose: 200.0 mg/kg/injection, schedule: Q01DX009 (ip), vehicle: saline with Tween-80
[22] = dose: 12.5 mg/kg/injection, schedule: Q01DX009 (ip), vehicle: saline with Tween-80

## O=Cc1c[nH]c2ccc(NC(=O)OCc3ccccc3)cc12
[1]
  T/C: 103 % of control
[2]
  T/C: 89 % of control
dose: 400.0 mg/kg/injection, schedule: Q01DX009 (ip), vehicle: saline with Tween-80
  T/C: 86 % of control

## O=C(NC(=O)c1ccccc1Cl)Nc1ccc(C(O)(C(F)(F)F)C(F)(F)F)cc1
[3]
  T/C: 104 % of control
[4]
  T/C: 102 % of control
[5]
  T/C: 100 % of control

## COC(=O)C1=C(C)NC(c2ccc(OC)cc2OC)C(C(=O)OC)=C1C (stereo unspecified)
[6]
  T/C: 105 % of control
[7]
  T/C: 102 % of control
[8]
  T/C: 97 % of control

## CCn1c2ccccc2c2cc(N)c(N=Nc3ccc([N+](=O)[O-])c(OC)c3)cc21
[9]
  T/C: 104 % of control
[10]
  T/C: 104 % of control
[11]
  T/C: 105 % of control

## CCS(=O)(=O)C(=O)N1CCN(C(=O)S(=O)(=O)CC)CC1
[9]
  T/C: 98 % of control
[10]
  T/C: 100 % of control
[11]
  T/C: 106 % of control

## NCCCC(N)(C(=O)O)C(F)F (stereo unspecified)
[12]
  T/C: 106 % of control
dose: 50.0 mg/kg/injection, schedule: Q01DX009 (ip), vehicle: distilled water + alcohol
  T/C: 112 % of control
[13]
  T/C: 87 % of control
[14]
  T/C: 103 % of control
dose: 100.0 mg/kg/injection, schedule: Q01DX009 (ip), vehicle: distilled water + alcohol
  T/C: 112 % of control
[15]
  T/C: 103 % of control
[16]
  T/C: 103 % of control
dose: 200.0 mg/kg/injection, schedule: Q01DX009 (ip), vehicle: distilled water + alcohol
  T/C: 115 % of control
[17]
  T/C: 110 % of control
dose: 400.0 mg/kg/injection, schedule: Q01DX009 (ip), vehicle: distilled water + alcohol
  T/C: 119 % of control
dose: 800.0 mg/kg/injection, schedule: Q01DX009 (ip), vehicle: distilled water + alcohol
  T/C: 111 % of control

## CC(C)=CCCC(=O)C(c1nc2nnc(N)n2[nH]c1=O)c1nc2nnc(N)n2[nH]c1=O
dose: 60.0 mg/kg/injection, schedule: Q01DX005 (ip), vehicle: saline
  T/C: 104 % of control
dose: 120.0 mg/kg/injection, schedule: Q01DX005 (ip), vehicle: saline
  T/C: 104 % of control
dose: 240.0 mg/kg/injection, schedule: Q01DX005 (ip), vehicle: saline
  T/C: 95 % of control

## CCCCCCCCCCNCCSSc1ccccc1
dose: 6.25 mg/kg/injection, schedule: Q01DX005 (ip), vehicle: Klucel (hydroxypropylcellulose) (HPC)
  T/C: 95 % of control
dose: 12.5 mg/kg/injection, schedule: Q01DX005 (ip), vehicle: Klucel (hydroxypropylcellulose) (HPC)
  T/C: 100 % of control
dose: 25.0 mg/kg/injection, schedule: Q01DX005 (ip), vehicle: Klucel (hydroxypropylcellulose) (HPC)
  T/C: 102 % of control

## COC(=O)CCSC(=O)NC(C)C
[18]
  T/C: 99 % of control
[19]
  T/C: 102 % of control
[20]
  T/C: 100 % of control

## CC(=O)NCCSSSCCNC(C)=O
[12]
  T/C: 115 % of control
[14]
  T/C: 115 % of control

## O=C1CC(c2ccccc2)=NO1
dose: 100.0 mg/kg/injection, schedule: Q04DX003 (ip), vehicle: Klucel (hydroxypropylcellulose) (HPC)
  T/C: 94 % of control
dose: 200.0 mg/kg/injection, schedule: Q04DX003 (ip), vehicle: Klucel (hydroxypropylcellulose) (HPC)
  T/C: 99 % of control
dose: 400.0 mg/kg/injection, schedule: Q04DX003 (ip), vehicle: Klucel (hydroxypropylcellulose) (HPC)
  T/C: 100 % of control

## O=C(O)c1cnc2c(C(F)(F)F)cccc2c1Nc1ccc2c(c1)OCO2
dose: 7.5 mg/kg/injection, schedule: Q01DX005 (ip), vehicle: Klucel (hydroxypropylcellulose) (HPC)
  T/C: 92 % of control
dose: 15.0 mg/kg/injection, schedule: Q01DX005 (ip), vehicle: Klucel (hydroxypropylcellulose) (HPC)
  T/C: 101 % of control
dose: 30.0 mg/kg/injection, schedule: Q01DX005 (ip), vehicle: Klucel (hydroxypropylcellulose) (HPC)
  T/C: 105 % of control
dose: 120.0 mg/kg/injection, schedule: Q01DX005 (ip), vehicle: Klucel (hydroxypropylcellulose) (HPC)
  T/C: 101 % of control
dose: 240.0 mg/kg/injection, schedule: Q01DX005 (ip), vehicle: Klucel (hydroxypropylcellulose) (HPC)
  T/C: 96 % of control

## Clc1ccc(N=Cc2cccs2)cc1Cl
[9]
  T/C: 110 % of control
[10]
  T/C: 107 % of control
[11]
  T/C: 110 % of control

## O=C(N/N=C/c1ccccc1[O-])c1ccccc1O.O=C(N/N=C/c1ccccc1[O-])c1ccccc1O.[Mn+2]
[18]
  T/C: 100 % of control
[19]
  T/C: 103 % of control
[20]
  T/C: 103 % of control

## CC1(C)C(N)C(C)(C)C1N (stereo unspecified)
[13]
  T/C: 94 % of control
[15]
  T/C: 97 % of control
[17]
  T/C: 86 % of control

## COc1cc2ccnc(/C=N\NC(N)=S)c2cc1OC
dose: 25.0 mg/kg/injection, schedule: Q01DX009 (ip), vehicle: saline with Tween-80
  T/C: 98 % of control
[1]
  T/C: 101 % of control
[2]
  T/C: 107 % of control
[21]
  T/C: 118 % of control

## Cc1c(-c2ccccc2)n(O)c(-c2ccc([N+](=O)[O-])cc2)[n+]1[O-]
[1]
  T/C: 99 % of control
[2]
  T/C: 94 % of control
[21]
  T/C: 94 % of control

## CCOC(=O)/C(C#N)=C/Nc1[nH]c(=O)c(C#N)c(-c2ccc(Cl)cc2)c1SC
[6]
  T/C: 110 % of control
[7]
  T/C: 100 % of control
[8]
  T/C: 108 % of control

## O=C1C=CC(=Nc2ccc3c(c2)C(Br)c2ccccc2-3)O1 (stereo unspecified)
dose: 4.0 mg/kg/injection, schedule: Q01DX009 (ip), vehicle: saline with Tween-80
  T/C: 113 % of control
dose: 6.0 mg/kg/injection, schedule: Q01DX009 (ip), vehicle: saline with Tween-80
  T/C: 104 % of control
dose: 6.25 mg/kg/injection, schedule: Q04DX003 (ip), vehicle: saline with Tween-80
  T/C: 113 % of control
dose: 9.0 mg/kg/injection, schedule: Q01DX009 (ip), vehicle: saline with Tween-80
  T/C: 90 % of control
[22]
  T/C: 113 % of control
dose: 12.5 mg/kg/injection, schedule: Q04DX003 (ip), vehicle: saline with Tween-80
  T/C: 100 % of control
dose: 25.0 mg/kg/injection, schedule: Q04DX003 (ip), vehicle: saline with Tween-80
  T/C: 113 % of control

## Cc1c(O)c(=O)ccn1C1OC(CO)C(O)C1O (stereo unspecified)
dose: 25.0 mg/kg/injection, schedule: Q01DX005 (ip), vehicle: saline
  T/C: 99 % of control
[12]
  T/C: 104 % of control
[14]
  T/C: 99 % of control
[16]
  T/C: 104 % of control
dose: 400.0 mg/kg/injection, schedule: Q01DX005 (ip), vehicle: saline
  T/C: 105 % of control

## O=c1[nH]c(=O)c2cc(Cl)cc(Cl)c2[nH]1
dose: 50.0 mg/kg/injection, schedule: Q01DX001 (ip), vehicle: saline with Tween-80
  T/C: 90 % of control
dose: 100.0 mg/kg/injection, schedule: Q01DX001 (ip), vehicle: saline with Tween-80
  T/C: 90 % of control
dose: 200.0 mg/kg/injection, schedule: Q01DX001 (ip), vehicle: saline with Tween-80
  T/C: 90 % of control

## CC(C)C[NH-].CC(C)C[NH-].[Cl][Pt+2]([Cl])([Cl])[Cl]
dose: 5.56 mg/kg/injection, schedule: Q01DX009 (ip), vehicle: saline with Tween-80
  T/C: 169 % of control
dose: 8.33 mg/kg/injection, schedule: Q01DX009 (ip), vehicle: saline with Tween-80
  T/C: 166 % of control
[22]
  T/C: 166 % of control and 181 % of control

## N=C1C=CC2C(=Nc3ccccc3[N+]2=O)N1CCO (stereo unspecified)
dose: 15.0 mg/kg/injection, schedule: Q01DX005 (ip), vehicle: saline with Tween-80
  T/C: 99 % of control and 105 % of control
dose: 30.0 mg/kg/injection, schedule: Q01DX005 (ip), vehicle: saline with Tween-80
  T/C: 101 % of control and 112 % of control
[6]
  T/C: 100 % of control and 103 % of control

## CCN(Cc1c(C)[nH]c2ccc(N(C)C)cc2c1=O)Cc1c(C)[nH]c2ccc(N(C)C)cc2c1=O
[13]
  T/C: 101 % of control
[15]
  T/C: 101 % of control
[17]
  T/C: 106 % of control

## NNC(=O)SCCC(=O)O
[3]
  T/C: 97 % of control
[4]
  T/C: 97 % of control
[5]
  T/C: 101 % of control
